Values of other authors as cited in patent publication US9884017B2, “Foamable vehicles and pharmaceutical compositions comprising aprotic polar solvents and uses thereof” (Foamix Pharmaceuticals Ltd., priority 2009, dated 2018).

Details: 25° C.

SMILES | Dielectric constant | Polarity
CN(C)C=O [DMF, dimethylformamide] | 36.7 | 3.8 Debye
C[S+](C)[O-] [DMSO, Dimethyl sulfoxide] | 46.4 | 4.3 Debye
